Measured values taken from article PMC10579241, “Impact of trifluoromethyl and sulfonyl groups on the biological activity of novel aryl-urea derivatives: synthesis, in-vitro, in-silico and SAR studies” (Scientific Reports, 2023).
Marks after values point to notes of the source that are not given here.

How the values were obtained:
[1] = tested on: human lung carcinoma (A549); test: cells; assay type: cell-based; conditions: 48 h
[2] = tested on: TP53; test: qRT-PCR, TP53 in HCT116 cells; assay type: cell-based, human; conditions: versus negative samples
Procedure: RNA was extracted from pancreas, prostate, lung and liver cell lines using a total RNA purification kit (Qiagen, Hilden, Germany) according to the manufacturer's instructions. An aliquot of RNA was diluted in RNase-free water to estimate RNA quantity. Aliquots were used immediately for reverse transcription (RT). cDNA synthesis was performed on extracted RNA, which was treated with DNase (Invitrogen, Germany) to remove any possible DNA contamination. The DNase-treated RNA was reverse transcribed into first-strand cDNA using the RevertAid First Strand cDNA Synthesis kit (Fermantas) according to the manufacturer's instructions. Determination of the pancreas, prostate, lung and liver cell line cDNA copy number was carried out using StepOne™ Real-Time PCR System from Applied Biosystems (Thermo Fisher Scientific, Waltham, MA USA). Gene expressions were detected by real-time PCR, which was performed using the Rotor-Gene Q system (Qiagen Company). A 25 µL reaction mixture consisted of 12.5 µL SYBR® Premix Ex TaqTM (TaKaRa, Biotech. Co. Ltd.), 0.5 µL of each primer (10 PMole) (Table 1), 1 µL cDNA (50 ng) and 10.5 µL RNase free water. The optimum amplification conditions were chosen empirically according to each tested gene. Generally, the amplification conditions include initial incubation (95.0 °C for 3 min), then 40 cycles of amplification with denaturation (95.0 °C for 15 s), annealing (55.0 °C for 30 s) and extension (72.0 °C for 30 s) steps then 71 cycles which started at 60.0 °C and then increased about 0.5 °C every 10 s up to 95.0 °C. Mean cycle threshold (Ct) values of triplicate samples are used for analysis. The Ct value indicates the fractional cycle number at which the amount of amplified target reaches a fixed threshold. Data from real-time PCR were analyzed using 2^−∆∆Ct method[38]–[40]. Data were represented as the fold change in target gene expression normalized to a House-Keeping gene (HKG) and relative to the control. β-actin was used as a HKG to normalize input RNA amount, RNA quality and reverse transcription efficiency.

[3] = tested on: A549; test: DNA damage, comet assay, A549; assay type: cell-based, human; conditions: of 400 cells analyzed
[4] = tested on: PC3; test: DNA damage, comet assay, PC3; assay type: cell-based, human
[5] = tested on: FASN; test: qRT-PCR, FASN in HCT116 cells; assay type: cell-based, human; conditions: versus negative samples
[6] = tested on: prostate cancer (PC3); test: cells; assay type: cell-based; conditions: Homo sapiens, 48 h
[7] = tested on: CDKN2A; test: qRT-PCR, CDKN2A in PACA2 cells; assay type: cell-based, human; conditions: versus negative untreated sample
[8] = tested on: osteosarcoma cell line (HOS); test: cells; assay type: cell-based; conditions: Homo sapiens, 48 h
[9] = tested on: skin cancer (A431); test: cells; assay type: cell-based; conditions: Homo sapiens, 48 h
[10] = tested on: KRAS; test: qRT-PCR, KRAS in A549 cells; assay type: cell-based, human; conditions: versus negative samples
[11] = tested on: PC3; test: DNA fragmentation assay, PC3; assay type: cell-based, human
[12] = tested on: pancreatic cancer cell line (PACA2); test: cells; assay type: cell-based; conditions: Homo sapiens, 48 h
[13] = tested on: A549; test: DNA fragmentation assay, A549; assay type: cell-based, human
[14] = tested on: BRCA2; test: qRT-PCR, BRCA2 in PC3 cells; assay type: cell-based, human; conditions: versus negative samples
[15] = tested on: PACA2; test: DNA damage, comet assay, PACA2; assay type: cell-based, human
[16] = tested on: BRCA1; test: qRT-PCR, BRCA1 in PC3 cells; assay type: cell-based, human; conditions: versus negative samples
[17] = in vitro; assay type: cell-based; conditions: human, BJ1 normal skin fibroblast cells, 100 μg/mL
[18] = tested on: normal skin fibroblast cell line (BJ1); test: cells; assay type: cell-based; conditions: Homo sapiens, Skin fibroblast, MTT, 48 h
[19] = tested on: HCT116; test: DNA fragmentation assay, HCT116; assay type: cell-based, human
[20] = tested on: colon cancer (HCT116); test: cells; assay type: cell-based; conditions: Homo sapiens, 48 h
[21] = tested on: HCT116; test: DNA damage, comet assay, HCT116; assay type: cell-based, human
[22] = tested on: EGFR; test: qRT-PCR, EGFR in A549 cells; assay type: cell-based, human; conditions: versus negative samples
[23] = tested on: hepatocellular carcinoma cell line (HePG2); test: cells; assay type: cell-based; conditions: Homo sapiens, 48 h
[24] = tested on: PACA2; test: DNA fragmentation assay, PACA2; assay type: cell-based, human
[25] = tested on: PALB2; test: qRT-PCR, PALB2 in PACA2 cells; assay type: cell-based, human; conditions: versus negative untreated sample

COc1cccc2c1C(=O)c1c(O)c3c(c(O)c1C2=O)C[C@@](O)(C(=O)CO)C[C@@H]3O[C@H]1C[C@H](N)[C@H](O)[C@H](C)O1 [Doxorubicin, reference compound]
mortality at 100 µg/mL ([1]; 100 μg/mL): 100%
IC50 ([1]; MTT): 52.1 ± 0.28 µM
TP53 gene expression level [2]: suppression
Class 0 (no tail), number of cells [3]: 314
Class 1 (tail length < diameter of nucleus), number of cells [3]: 25
Class 2 (tail length between 1 and 2 × the diameter of nucleus), number of cells [3]: 32
Class 3 (tail length > 2 × the diameter of nucleus), number of cells [3]: 29
No. of cells, Comets [3]: 86
DNA damaged cells % (mean ± SEM) [4]: 20.76 ± 1.38^b %
Class 0 (no tail), number of cells ([4]; of 400 cells analyzed): 317
Class 1 (tail length < diameter of nucleus), number of cells ([4]; of 400 cells analyzed): 39
Class 2 (tail length between 1 and 2 × the diameter of nucleus), number of cells ([4]; of 400 cells analyzed): 30
Class 3 (tail length > 2 × the diameter of nucleus), number of cells ([4]; of 400 cells analyzed): 14
No. of cells, Comets ([4]; of 400 cells analyzed): 83
FASN gene expression level [5]: suppression
mortality at 100 µg/mL ([6]; 100 μg/mL): 100%
IC50 ([6]; MTT): 43.8 ± 0.47 µM
CDKN2A gene expression level [7]: significantly reduced
mortality at 100 µg/mL ([8]; 100 μg/mL): 100%
IC50 ([8]; MTT): 24.3 ± 0.24 µM
mortality at 100 µg/mL ([9]; A-431, 100 μg/mL): 100%
IC50 ([9]; A-431, MTT): 45.8 ± 0.15 µM
KRAS gene expression level [10]: significant reduction
Change (DNA fragmentation versus untreated cells) [11]: 20.1
DNA fragmentation % M ± SEM ([11]; IC50 concentration, 24 h): 31.7 ± 0.85^b %
Inhibition ([11]; doxorubicin = 0.0): 0.0
mortality at 100 µg/mL ([12]; PaCa-2, 100 μg/mL): 100%
IC50 ([12]; PaCa-2, MTT): 52.1 ± 0.19 µM
Change (DNA fragmentation versus untreated cells) [13]: 19.5
DNA fragmentation % M ± SEM ([13]; IC50 concentration, 24 h): 30.9 ± 1.64^a %
Inhibition ([13]; doxorubicin = 0.0): 0.0
BRCA2 gene expression level [14]: decreased significantly
DNA damaged cells % (mean ± SEM) [15]: 20.25 ± 0.75^a %
Class 1 (tail length < diameter of nucleus), number of cells ([15]; of 400 cells analyzed): 28
Class 2 (tail length between 1 and 2 × the diameter of nucleus), number of cells ([15]; of 400 cells analyzed): 26
Class 3 (tail length > 2 × the diameter of nucleus), number of cells ([15]; of 400 cells analyzed): 27
No. of cells, Comets ([15]; of 400 cells analyzed): 81
BRCA1 gene expression level [16]: decreased significantly
mortality at 48 h, 100 µg/mL [17]: 100%
IC50 [18]: 24.8 ± 0.52 µM
Change (DNA fragmentation versus untreated cells) [19]: 21.00
Inhibition ([19]; doxorubicin = 0.00): 0.00
mortality at 100 µg/mL ([20]; HCT-116, 100 μg/mL): 100%
IC50 ([20]; HCT-116, MTT): 69.2 ± 0.1 µM
DNA damaged cells % (mean ± SEM) [21]: 21.26 ± 0.48^ab %
Class 0 (no tail), number of cells ([21]; of 400 cells analyzed): 315
Class 1 (tail length < diameter of nucleus), number of cells ([21]; of 400 cells analyzed): 33
Class 2 (tail length between 1 and 2 × the diameter of nucleus), number of cells ([21]; of 400 cells analyzed): 24
Class 3 (tail length > 2 × the diameter of nucleus), number of cells ([21]; of 400 cells analyzed): 28
No. of cells, Comets ([21]; of 400 cells analyzed): 85
EGFR gene expression level [22]: significant reduction
mortality at 100 µg/mL ([23]; 100 μg/mL): 100%
IC50 ([23]; MTT): 39.7 ± 0.18 µM
Change (DNA fragmentation versus untreated cells) [24]: 18.00
DNA fragmentation % M ± SEM ([24]; IC50 concentration, 24 h): 30.1 ± 0.62^b %
Inhibition ([24]; doxorubicin = 0.0): 0.0
PALB2 gene expression level [25]: significantly reduced
